“And” between values parts separate entries of the source, which are not always exact repeats. Identical values can stand only once.
Tests used:
SetDB1 H3K9me3 HMTase = settings: cited from earlier work
SCNT blastocysts = test: ntESC derivation from SCNT blastocysts; assay type: cell-based, mouse
Procedure: Blastocysts were denuded by acid tyrode treatment and cultured on mitomycin treated MEF feeder cells and in DMEM supplemented with 5% FBS, 10% KnockOut serum replacement (Life Technologies #10828-028), 0.1 mM non-essential amino acids, 2 mM GlutaMAX, 50 U/ml penicillin-streptomycin, 0.1 mM 2-mercaptoethanol and 2000 U leukemia inhibitory factor (LIF, Millipore #ESG1107) at 37° C. 5% CO2. Four to five days later, outgrowths from attached embryos were dissociated with 0.25% trypsin and passaged all onto new feeder cells. On the following day, the medium was replaced with N2B27-LIF media [DMEM/F12 (Life Technologies #10565-042) supplemented with 0.1 mM non-essential amino acids, 2 mM GlutaMAX, 50 U/ml penicillin-streptomycin, 0.1 mM 2-mercaptoethanol, 0.5×N2 supplement (Life technologies #17502-048), 0.5× B27 supplement (Life technologies #17504-044), […] CHIR99021 (STEMGENT #04-0004), 0.5 μM PD0325901 (STEMGENT #04-0006) and 1000 U LIF]. Five days later, expanded cells were reseeded as established ntESC.

SCNT embryos = test: Preimplantation development of SCNT embryos cultured in vitro; assay type: cell-based, mouse; settings: cumulus donor cells (BDF1, female), TSA treatment 15 nM for 8 h, water or mRNA 1800 ng/μl injected
Text: C57BL/6J female mice were mated with DBA/2J males to produce B6D2F1/J (BDF1) mice. BDF1 and CD-1 (ICR) adult females were used for the collection of recipient oocytes and embryo transfer recipients, respectively. BDF1 mice were used for the collection of donor somatic cells for the analyses of development. (C57BL/6×CAST/EiJ) F1 mice were used for the collection of donor cells for RNA-seq. E13.5 embryos harboring GOF18 delta-PE (Jackson Laboratory, 004654: Tg(Pou5f1-EGFP)2Mnn, C57BL/6J background) were used for the isolation of mouse embryonic fibroblasts (MEF). All animal experiments were approved by the Institutional Animal Care and Use Committee of Harvard Medical School.
Cumulus cells were collected from adult BDF1 females through superovulation by injecting 7.5 IU of pregnant mare serum gonadotropin (PMSG; Harbor) and 7.5 IU of human chorionic gonadotropin (hCG; Millipore). Fifteen hours after the hCG injection, cumulus-oocyte complexes (COCs) were collected from the oviducts and briefly treated with Hepes-buffered potassium simplex-optimized medium (KSOM) containing 300 U/ml bovine testicular hyaluronidase (Calbiochem #385931) to obtain dissociated cumulus cells. Sertoli cells were collected from testes of 3- to 5-day-old BDF1 male mice as described (Matoba et al., 2011). Testicular masses were incubated in PBS containing 0.1 mg/ml collagenase (Life Technologies #17104-019) for 30 min at 37° C. followed by 5 min treatment with 0.25% Trypsine with 1 mM EDTA (Life Technologies #25200-056) at room temperature. After washing for four times with PBS containing 3 mg/ml bovine serum albumin, the dissociated cells were suspended in Hepes-KSOM medium.
Primary mouse embryonic fibroblast (MEF) cells were established from GOF18 delta-PE mouse embryos at 13.5 dpc. After removal of head and all organs, minced tissue from remaining corpus was dissociated in 500 μl of 0.25% Trypsine with 1 mM EDTA for 10 min at 37° C. Cell suspension was diluted with equal amount of DMEM (Life Technologies #11995-073) containing 10% FBS and Penicillin/Streptomycin (Life Technologies #15140-022) and pipetted up and down for 20 times. The cell suspension was diluted with fresh medium and plated onto 100 mm dishes and cultured at 37° C. Two days later, MEF cells were harvested and frozen. Frozen stocks of MEF cells were thawed and used for experiments after one passage.
siRNAs against mouse Suv39h1 (Life Technologies #s74607), Suv39h2 (Life Technologies #s82300) and Setdb1 (Life Technologies #s96549) were diluted in nuclease free water at 50 μM stock solutions. siRNAs were introduced to MEFs with Lipofectamine RNAi Max (Life technologies #35050-061) following manufacturer's protocol. Briefly, 1×10^5 MEF cells were seeded onto 24-well plate (day 0; see FIG. 5A). Twenty-four hours later, […] siRNAs were transfected into MEF cells using Lipofectamine RNAi Max (day 1). Twenty-four hours after the first transfection, the culture media was changed to fresh M293T media [DMEM supplemented with 10% FBS, 0.1 mM non-essential amino acids (Life technologies #11140-050), 2 mM GlutaMAX (Life technologies #35050-079), 50 U/ml penicillin-streptomycin and 0.1 mM 2-mercaptoethanol (Life technologies #21985-023)] (day 2). On day 3, MEF cells were reseeded onto 24-well plates at the density of 1×10^5 cells. Then transfection was repeated once as described above (day 4). Forty-eight hours after the second transfection (day 6), MEF cells were used for immunostaining, RT-qPCR or SCNT.
Somatic cell nuclear transfer was carried out as described previously (Matoba et al., 2011). Briefly, recipient MII oocytes were collected from superovulated adult BDF1 females by brief treatment with 300 U/ml bovine testicular hyaluronidase (Calbiochem). Isolated MII oocytes were enucleated in Hepes-buffered KSOM medium containing 7.5 μg/ml of cytochalasin B (Calbiochem #250233). […]

Suv39h2 = Suv39h2 (Homo sapiens, UniProt Q9H5I1); settings: cited from earlier work
[1] = cumulus donor cells (BDF1, female), TSA treatment 15 nM for 8 h, water or mRNA 1800 ng/μl injected

Chain of Suv39h2 (Q9H5I1 whole entry, species assumed): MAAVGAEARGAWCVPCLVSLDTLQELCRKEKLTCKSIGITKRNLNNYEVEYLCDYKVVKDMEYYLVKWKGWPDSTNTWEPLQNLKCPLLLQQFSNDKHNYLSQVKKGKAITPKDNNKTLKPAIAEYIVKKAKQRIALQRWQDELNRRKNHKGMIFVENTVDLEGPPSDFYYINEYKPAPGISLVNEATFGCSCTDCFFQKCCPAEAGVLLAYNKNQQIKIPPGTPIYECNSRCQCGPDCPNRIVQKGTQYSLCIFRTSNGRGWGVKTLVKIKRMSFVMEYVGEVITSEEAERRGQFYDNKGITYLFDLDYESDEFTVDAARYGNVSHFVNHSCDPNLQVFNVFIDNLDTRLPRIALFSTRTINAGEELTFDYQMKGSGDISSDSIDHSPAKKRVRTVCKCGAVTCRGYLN

## Nc1nccc2c1ncn2[C@@H]1C=C(CO)[C@@H](O)[C@H]1O [DZNep, 3-Deazaneplanocin A]
SetDB1 H3K9me3 HMTase
  levels of H3K27me3 and H3K9me3 (in words): reduced levels of both H3K27me3 and H3K9me3

## CC(/C=C/C(=O)NO)=C\[C@@H](C)C(=O)c1ccc(N(C)C)cc1 [TSA, trichostatin A, reference compound]
SCNT blastocysts; SCNT blastocysts from cumulus donor cells
  efficiency of attachment or ntESC derivation per blastocyst, compared to control (in words): did not show any significant difference
SCNT blastocysts; [1]
  No. of blastocyst attached to feeder cells: 14
  No. of established ntESC lines: 8
  blastocyst attached to feeder cells (% per blast): 70.0%
  established ntESC lines (% per MII oocyte): (18.2) %
  established ntESC lines (% per blast): (40.0) %
SCNT embryos
  % 4-cell per 2-cell ± SD: 72.1 ± 10.9 %
  % blast per 2-cell ± SD: 53.8% and 53.8 ± 6.2 %
  % cleaved per 1-cell ± SD: 98.0 ± 3.4%
  % morula per 2-cell ± SD: 60.8 ± 6.8 %
SCNT embryos; ntESC derivation experiment
  No. of blastocyst: 20
  blastocyst (% per 1-cell): 51.3%

## COc1cc2c(NC3CCN(C(C)C)CC3)nc(C3CCCCC3)nc2cc1OCCCN1CCCC1 [UNC0638, 2-Cyclohexyl-N-(1-isopropylpiperidin-4-yl)-6-methoxy-7-(3-(pyrrolidin-1-yl)propoxy)quinazolin-4-amine]
Suv39h2
  IC50: > 10 µM

Reference: US12644133B2, “Methods and compositions to increase somatic cell nuclear transfer (SCNT) efficiency by removing histone H3-lysine trimethylation” (The Children's Medical Center Corporation, priority 2014, dated 2026)
